In US12083101B2, “Biaryl derivatives as YAP/TAZ-TEAD protein-protein interaction inhibitors” (Novartis AG, priority 2020, dated 2024):

target: Avi-humanTEAD4 217-434 / Cy5 labeled humanYAP 60-100 (Homo sapiens (Human), UniProt Q15561); assay: TR-FRET YAP-TEAD4 in-vitro biochemical assay; assay type: binding; conditions: 1 nM Avi-humanTEAD4 217-434, 20 nM Cy5-humanYAP 60-100, 1 h room temperature
Method: N-terminus Cy5 labeled humanYAP^60-100 (20 nM) was then added to this preparation. Compounds were dissolved at 10 mM in 100% DMSO and serial dilutions were made in 100% DMSO. The diluted compound solutions were incubated in white 384-well plates (Greiner Bio-One) for 1 h at room temperature with the above described mix. The final DMSO concentration present in the assay was 1%. […] The IC50 values were estimated by fitting the data by nonlinear fit regression (GraphPad Prism).

Chain of Avi-humanTEAD4 217-434 / Cy5 labeled humanYAP 60-100 (Q15561 217-434): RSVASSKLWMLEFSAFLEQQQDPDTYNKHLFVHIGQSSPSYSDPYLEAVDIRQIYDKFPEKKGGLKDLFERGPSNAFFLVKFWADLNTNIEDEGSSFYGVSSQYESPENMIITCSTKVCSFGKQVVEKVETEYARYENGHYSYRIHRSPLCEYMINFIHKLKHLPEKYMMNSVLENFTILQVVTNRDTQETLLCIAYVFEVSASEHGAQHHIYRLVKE

Compound	IC50 [nM]
C[C@@H]1C[C@@H](NC[C@@]2(c3ccccc3)Cc3c(cc(F)c(Cl)c3-c3c(C(N)=O)ccc(OCCO)c3F)O2)C[C@H](C)O1 (atropisomer, axis not shown) [Example 65b, 2-((2S,4S)-5-chloro-2-((((2R,4s,6S)-2,6-dimethyltetrahydro-2H-pyran-4-yl)amino)methyl)-6-fluoro-2-phenyl-2,3-dihydrobenzofuran-4-yl)-3-fluoro-4-(2-hydroxyethoxy)benzamide]	455
COc1ncc(C(N)=O)c(-c2c(Cl)c(F)cc3c2C[C@@](CN[C@H]2CC[C@](C)(O)CC2)(c2ccccc2)O3)c1F (atropisomer, axis not shown) [Example 66a, 4-((2S,4S)-5-chloro-6-fluoro-2-((((trans)-4-hydroxy-4-methylcyclohexyl)amino)methyl)-2-phenyl-2,3-dihydrobenzofuran-4-yl)-5-fluoro-6-methoxynicotinamide]	2
COc1ncc(C(N)=O)c(-c2c(Cl)c(F)cc3c2C[C@@](CN[C@H]2CC[C@@](C)(O)CC2)(c2ccccc2)O3)c1F (atropisomer, axis not shown) [Example 66b, 4-((2S,4S)-5-chloro-6-fluoro-2-((((cis)-4-hydroxy-4-methylcyclohexyl)amino)methyl)-2-phenyl-2,3-dihydrobenzofuran-4-yl)-5-fluoro-6-methoxynicotinamide]	2
C[C@]1(O)CC[C@@H](NC[C@@]2(c3ccccc3)Cc3c(cc(F)c(Cl)c3-c3c(C(N)=O)ccc(OC[C@H]4CCCO4)c3F)O2)CC1 (atropisomer, axis not shown) [Example 67a, 2-((2S,4S)-5-chloro-6-fluoro-2-((((cis)-4-hydroxy-4-methylcyclohexyl)amino)methyl)-2-phenyl-2,3-dihydrobenzofuran-4-yl)-3-fluoro-4-(((R)-tetrahydrofuran-2-yl)methoxy)benzamide]	2
C[C@]1(O)CC[C@H](NC[C@@]2(c3ccccc3)Cc3c(cc(F)c(Cl)c3-c3c(C(N)=O)ccc(OC[C@H]4CCCO4)c3F)O2)CC1 (atropisomer, axis not shown) [Example 67b, 2-((2S,4S)-5-chloro-6-fluoro-2-((((trans)-4-hydroxy-4-methylcyclohexyl)amino)methyl)-2-phenyl-2,3-dihydrobenzofuran-4-yl)-3-fluoro-4-(((R)-tetrahydrofuran-2-yl)methoxy)benzamide]	3
CCc1ccc(C(N)=O)c(-c2c(Cl)c(F)cc3c2C[C@@](CN[C@H]2CC[C@](C)(O)CC2)(c2ccccc2)O3)c1F (atropisomer, axis not shown) [Example 68a, 2-((2S,4S)-5-chloro-6-fluoro-2-((((trans)-4-hydroxy-4-methylcyclohexyl)amino)methyl)-2-phenyl-2,3-dihydrobenzofuran-4-yl)-4-ethyl-3-fluorobenzamide]	10
CCc1ccc(C(N)=O)c(-c2c(Cl)c(F)cc3c2C[C@@](CN[C@H]2CC[C@@](C)(O)CC2)(c2ccccc2)O3)c1F (atropisomer, axis not shown) [Example 68b, 2-((2S,4S)-5-chloro-6-fluoro-2-((((cis)-4-hydroxy-4-methylcyclohexyl)amino)methyl)-2-phenyl-2,3-dihydrobenzofuran-4-yl)-4-ethyl-3-fluorobenzamide]	12
CC(=O)N1CCC(NC[C@@]2(c3ccccc3)Cc3c(cc(F)c(Cl)c3-c3c(C(N)=O)ccc(OC(F)F)c3F)O2)CC1 (atropisomer, axis not shown) [Example 70, 2-((2S,4S)-2-(((1-acetylpiperidin-4-yl)amino)methyl)-5-chloro-6-fluoro-2-phenyl-2,3-dihydrobenzofuran-4-yl)-4-(difluoromethoxy)-3-fluorobenzamide]	20
C[C@]1(O)CC[C@H](NC[C@@]2(c3ccccc3)Cc3c(cc(F)c(Cl)c3-c3c(C(N)=O)ccc(OCc4ncccn4)c3F)O2)CC1 (atropisomer, axis not shown) [Example 71a, 2-((2S,4S)-5-chloro-6-fluoro-2-((((trans)-4-hydroxy-4-methylcyclohexyl)amino)methyl)-2-phenyl-2,3-dihydrobenzofuran-4-yl)-3-fluoro-4-(pyrimidin-2-ylmethoxy)benzamide]	2
C[C@]1(O)CC[C@@H](NC[C@@]2(c3ccccc3)Cc3c(cc(F)c(Cl)c3-c3c(C(N)=O)ccc(OCc4ncccn4)c3F)O2)CC1 (atropisomer, axis not shown) [Example 71b, 2-((2S,4S)-5-chloro-6-fluoro-2-((((cis)-4-hydroxy-4-methylcyclohexyl)amino)methyl)-2-phenyl-2,3-dihydrobenzofuran-4-yl)-3-fluoro-4-(pyrimidin-2-ylmethoxy)benzamide]	1
CC(C)(C)NC[C@@]1(c2ccccc2)Cc2c(cc(F)c(Cl)c2-c2c(C(N)=O)ccc(OC(F)F)c2F)O1 (atropisomer, axis not shown) [Example 73, 2-((2S,4S)-2-((tert-butylamino)methyl)-5-chloro-6-fluoro-2-phenyl-2,3-dihydrobenzofuran-4-yl)-4-(difluoromethoxy)-3-fluorobenzamide]	14
C[C@@H](CO)NC[C@@]1(c2ccccc2)Cc2c(cc(F)c(Cl)c2-c2c(C(N)=O)ccc(OC(F)F)c2F)O1 (atropisomer, axis not shown) [Example 75, 2-((2S,4S)-5-chloro-6-fluoro-2-((((S)-1-hydroxypropan-2-yl)amino)methyl)-2-phenyl-2,3-dihydrobenzofuran-4-yl)-4-(difluoromethoxy)-3-fluorobenzamide]	38
CC1(NC[C@@]2(c3ccccc3)Cc3c(cc(F)c(Cl)c3-c3c(C(N)=O)ccc(OC(F)F)c3F)O2)CC1 (atropisomer, axis not shown) [Example 76, 2-((2S,4S)-5-chloro-6-fluoro-2-(((1-methylcyclopropyl)amino)methyl)-2-phenyl-2,3-dihydrobenzofuran-4-yl)-4-(difluoromethoxy)-3-fluorobenzamide]	50
COCCNC[C@@]1(c2ccccc2)Cc2c(cc(F)c(Cl)c2-c2c(C(N)=O)ccc(OC(F)F)c2F)O1 (atropisomer, axis not shown) [Example 77, 2-((2S,4S)-5-chloro-6-fluoro-2-(((2-methoxyethyl)amino)methyl)-2-phenyl-2,3-dihydrobenzofuran-4-yl)-4-(difluoromethoxy)-3-fluorobenzamide]	71
NC(=O)c1ccc(OC(F)F)c(F)c1-c1c(Cl)c(F)cc2c1C[C@@](CNCCN1CCCC1=O)(c1ccccc1)O2 (atropisomer, axis not shown) [Example 78, 2-((2S,4S)-5-chloro-6-fluoro-2-(((2-(2-oxopyrrolidin-1-yl)ethyl)amino)methyl)-2-phenyl-2,3-dihydrobenzofuran-4-yl)-4-(difluoromethoxy)-3-fluorobenzamide]	160
NC(=O)c1ccc(OC(F)F)c(F)c1-c1c(Cl)c(F)cc2c1C[C@@](CN[C@H]1CC[C@H](n3cnnn3)CC1)(c1ccccc1)O2 (atropisomer, axis not shown) [Example 79, 2-((2S,4S)-2-((((trans)-4-(1H-tetrazol-1-yl)cyclohexyl)amino)methyl)-5-chloro-6-fluoro-2-phenyl-2,3-dihydrobenzofuran-4-yl)-4-(difluoromethoxy)-3-fluorobenzamide]	11
NC(=O)c1ccc(OC(F)F)c(F)c1-c1c(Cl)c(F)cc2c1C[C@@](CN[C@H]1C[C@H](COC(F)F)C1)(c1ccccc1)O2 (atropisomer, axis not shown) [Example 80, 2-((2S,4S)-5-chloro-2-(((trans-3-((difluoromethoxy)methyl)cyclobutyl)amino)methyl)-6-fluoro-2-phenyl-2,3-dihydrobenzofuran-4-yl)-4-(difluoromethoxy)-3-fluorobenzamide]	14
NC(=O)c1ccc(OC(F)F)c(F)c1-c1c(Cl)c(F)cc2c1C[C@@](CN[C@H]1C[C@H](F)C1)(c1ccccc1)O2 (atropisomer, axis not shown) [Example 82, 2-((2S,4S)-5-chloro-6-fluoro-2-(((trans-3-fluorocyclobutyl)amino)methyl)-2-phenyl-2,3-dihydrobenzofuran-4-yl)-4-(difluoromethoxy)-3-fluorobenzamide]	119
C[C@]1(NC[C@@]2(c3ccccc3)Cc3c(cc(F)c(Cl)c3-c3c(C(N)=O)ccc(OC(F)F)c3F)O2)CC[C@H](O)CC1 (atropisomer, axis not shown) [Example 84, 2-((2S,4S)-5-chloro-6-fluoro-2-((((trans)-4-hydroxy-1-methylcyclohexyl)amino)methyl)-2-phenyl-2,3-dihydrobenzofuran-4-yl)-4-(difluoromethoxy)-3-fluorobenzamide]	41
NC[C@]1(c2ccccc2)Oc2ccc(Cl)c(-c3c(C(N)=O)ccc(OC(F)F)c3F)c2[C@@H]1O (atropisomer, axis not shown) [Example 87, 2-((2S,3S,4S)-2-(aminomethyl)-5-chloro-3-hydroxy-2-phenyl-2,3-dihydrobenzofuran-4-yl)-4-(difluoromethoxy)-3-fluorobenzamide]	30
COc1ccc(C(N)=O)c(-c2c(Cl)ccc3c2[C@H](O)[C@@](CN)(c2ccc[nH]c2=O)O3)c1F (atropisomer, axis not shown) [Example 92, 2-((2S,3S,4S)-2-(Aminomethyl)-5-chloro-3-hydroxy-2-(2-oxo-1,2-dihydropyridin-3-yl)-2,3-dihydrobenzofuran-4-yl)-3-fluoro-4-methoxybenzamide]	22
COc1ccc(C(N)=O)c(-c2c(Cl)ccc3c2[C@H](O)[C@@](CN)(c2ccccc2OC(F)(F)F)O3)c1F (atropisomer, axis not shown) [Example 93, 2-((2S,3S,4S)-2-(Aminomethyl)-5-chloro-3-hydroxy-2-(2-(trifluoromethoxy)phenyl)-2,3-dihydrobenzofuran-4-yl)-3-fluoro-4-methoxybenzamide]	9
